Assays:
[1] = test system: U266 cells; assay: Western blot of signaling pathways (MAPKs, Akt) in U266 cells; format: cell-based, human
Experimental: Protein analyses were performed by Western blot in several sets of assays: expression pattern of CBs-receptors in MM cell lines and primary cells, and time course after treatment with cannabinoids in MM cell lines. Time-course assays were performed at 0, 2, 6, 18 and 24 hours. Anyway, obtaining cell lysates was conducted according to a protocol adapted to phosphorylation-dependent signaling, described by Gilbert et al. (2002). Briefly, 10e7 cells per condition were harvested at indicated times, washed with iced-cold PBS and lysate in isotonic lysis buffer 30 min keeping on ice. Isotonic lysis buffer contained 2% ASB-14 (CalbioChem, San Diego, Calif., USA),1% Nonidet P-40 (Ipegal®), 137 mM NaCl, 20mM Tris-HCl pH 7.5 at 4° C. (all from Sigma-Aldrich), 2 mM Na3VO4, 20 mM NaF (New England BioLabs Inc., Ipswich, Mass., USA), 2 mM DTT (AppliChem, Darmstadt, Germany), protease inhibitor cocktail (Roche Diagnostics GmbH, Mannheim, Germany), and 10 ul Nuclease Mix (Amersham GE Healthcare, Uppsala, Sweden). After lysis, samples were centrifuged at 13,000×g for 5 min at 4° C., and supernatants collected. Protein concentration in samples was determined by Pierce® Microplate BCA Protein Assay kit-Reducing Agent Compatible (Thermo Fisher Scientific). Before loading the samples in the gel, they were diluted in loading sample buffer (0.125 M Tris-HCl pH 6.8, 4% SDS, 20% glycerol, 0.02% Bromophenol Blue, 200 mM DTT) and the mixture was heated at 70° C. for 5 min in a thermoblock (LabNet International, N.J., USA).
Samples (15-25 ug/lane) were subjected to SDS/PAGE in pre-cast polyacrylamide gels AnykD (Bio-Rad Laboratories, Hercules, CA, USA) under reducing and denaturing conditions. Electrophoretic run was performed at a constant current of 15 mA per gel in a Mini-Protean® Tetra Cell (Bio-Rad Laboratories). Once proteins were separated by electrophoresis, were transferred onto PVDF membranes using Trans-Blot® Turbo™ System (Bio-Rad Laboratories). Electrotransference was conducted at constant amperage of 1.2 mA and at up to 25 V of voltage. The blotted membranes were then blocked with 2% bovine serum albumin [(BSA), Santa Cruz Biotechnology] in Tween-Tris buffer saline (TTBS) for 30 min with gentle agitation, and incubated overnight at 4° C. with corresponding primary antibody in TTBS. After twice washing with TTBS, membranes were incubated for 1-2 h at room temperature with suitable conjugated-HRP secondary antibody, and subjected to chemiluminescence detection using Western Blotting Luminol Reagent (Santa Cruz Biotechnology). Loading controls were carried out with an anti-beta-actin and anti-beta-tubulin antibodies (Sigma-Aldrich). Blots were captured using a digital imaging system ImageQuant LAS 4000 (Amersham GE Healthcare) and transferred to a digital image processing software to analyze (Adobe Photoshop CS2, version 9.0., Adobe Systems Inc., San Jose, Calif.).
Signaling pathways targeted by cannabinoids in myelomatous cells. To get further insights into the mechanisms of cannabinoids-induced apoptosis, we assessed the expression profile of phosphorylated-JNK, -Erk1/2, -p38 MAPK and -Akt by Western blot.

[2] = test system: HL60 cells; assay: Mitochondrial membrane potential in HL60 cells (TMRE, flow cytometry); format: cell-based, human
Experimental: Mitochondrial membrane potential and superoxide detection Cells (10e6 cells per assay) were treated with a concentration of WIN-55 for 15, 30, 45 and 60 min at 37° C. Fluorochromes 10 μM TMRM [(tetramethylrhodamine-ethyl-ester-perchlorate), Santa Cruz Biotechnology Inc.] to detect membrane potential, or 5 μM MitoSOX [Molecular Probes (Invitrogen)] to detect mitochondrial superoxide, were added for the last 15 min of treatment. CCCP (uncoupler of oxidative phosphorylation) or H2O2 (oxidant agent) was used as a positive control of the techniques respectively (Labbe et al., 2008). The fluorescence detection of TMRM was measured for flow citometry. Fluorescent intensity was quantified and analyzed using Infinicyt™ Software (Cytognos, Salamanca, Spain).
To delve into the processes that participate in cannabinoid-induced apoptosis, we evaluated the potential of mitochondrial membrane potential in HL60 cells after treatment with WIN-55, at indicated times, using TMRE assay by flow citometry. We observed that cannabinoids induced a drop of Δψm in HL60 cells (FIG. 20a). The loss of potential started as early as 15 min after exposure to the cannabinoid, and continued decreasing over time. Also the ROS increase by MitoSOX assay was observed, specially in HL60 cells after exposure to WIN-55 (FIG. 20b).

CS(=O)(=O)O.Cc1c(C(=O)c2cccc3ccccc23)c2cccc3c2n1[C@H](CN1CCOCC1)CO3 [WIN-55, (R)-(+)-[2,3-dihydro-5-methyl-3-(4-morpholinylmethyl)-pyrrolo-[1,2,3]-1,4-benzoxazin-6-yl]-1-naphthalenylmethanone mesylate]
p-Akt at early time points ([1]; U266): significant up-regulation | p-Akt expression levels at later times ([1]; U266): sharp decline | total Akt-expression, first 6 hours of exposure ([1]; U266): remained unchanged | p-JNK ([1]; U266, WIN-55 50 uM): slightly up-regulated | up-regulation of p-Erk1/2, compared with the slight up-regulation of p-JNK ([1]; U266, WIN-55 50 uM): to a lesser extent | p-p38 MAPK ([1]; U266, time-dependent): moderately downregulated | time after exposure at which the loss of potential started ([2]; HL60): 15 min | mitochondrial membrane potential (Δψm) ([2]; HL60, TMRE, flow cytometry): drop of Δψm

Reference: patent US20180353461A1, “USE OF CANNABINOIDS AS CERAMIDE-GENERATING ANTICANCER AGENTS IN TUMORS OF THE HEMATOPOIETIC AND LYMPHOID TISSUES” (priority 2014, published 2018)
